Assays:
[1] = biological target: Angiopoietin-1 receptor (Homo sapiens) (UniProt Q02763); assay: Selectivity interaction (SelectScreen profiling (Invitrogen)) EUB0000607a TEK; settings: at 2 µM
[2] = biological target: Ephrin type-A receptor 4 (Homo sapiens, UniProt P54764); assay: Selectivity interaction (KinomeScan (DiscoverX)) EUB0000045b EPHA4
[3] = biological target: Focal adhesion kinase 1 (Homo sapiens, UniProt Q05397); assay: Selectivity interaction (ActivX KiNativ screen (kinase selectivity in THP-1 cell lysates)) EUB0000639a PTK2; type: subcellular; settings: lysate, at 0.2 µM
[4] = biological target: Protein-tyrosine kinase 6 (Homo sapiens, UniProt Q13882)
[5] = biological target: T1, Mitogen-activated protein kinase 12 (Homo sapiens) (UniProt P53778); assay: Selectivity interaction (KinomeScan (DiscoverX)) EUB0000229b MAPK12; settings: at 10 µM
T1 sequence (whole entry): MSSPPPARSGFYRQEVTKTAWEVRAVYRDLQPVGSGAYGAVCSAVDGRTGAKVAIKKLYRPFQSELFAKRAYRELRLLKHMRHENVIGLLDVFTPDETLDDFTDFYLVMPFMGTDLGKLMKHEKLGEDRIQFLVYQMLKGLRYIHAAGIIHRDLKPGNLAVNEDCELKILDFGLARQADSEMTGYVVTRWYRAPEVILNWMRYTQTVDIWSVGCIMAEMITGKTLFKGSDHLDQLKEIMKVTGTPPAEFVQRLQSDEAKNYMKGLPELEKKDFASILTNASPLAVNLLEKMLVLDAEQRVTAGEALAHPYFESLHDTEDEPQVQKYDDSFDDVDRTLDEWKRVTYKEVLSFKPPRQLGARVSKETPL

[6] = biological target: T2, Serine/threonine-protein kinase D1 (Homo sapiens) (UniProt Q15139); assay: Selectivity interaction (KinomeScan (DiscoverX)) EUB0000229b PRKD1; settings: at 10 µM
T2 sequence (whole entry): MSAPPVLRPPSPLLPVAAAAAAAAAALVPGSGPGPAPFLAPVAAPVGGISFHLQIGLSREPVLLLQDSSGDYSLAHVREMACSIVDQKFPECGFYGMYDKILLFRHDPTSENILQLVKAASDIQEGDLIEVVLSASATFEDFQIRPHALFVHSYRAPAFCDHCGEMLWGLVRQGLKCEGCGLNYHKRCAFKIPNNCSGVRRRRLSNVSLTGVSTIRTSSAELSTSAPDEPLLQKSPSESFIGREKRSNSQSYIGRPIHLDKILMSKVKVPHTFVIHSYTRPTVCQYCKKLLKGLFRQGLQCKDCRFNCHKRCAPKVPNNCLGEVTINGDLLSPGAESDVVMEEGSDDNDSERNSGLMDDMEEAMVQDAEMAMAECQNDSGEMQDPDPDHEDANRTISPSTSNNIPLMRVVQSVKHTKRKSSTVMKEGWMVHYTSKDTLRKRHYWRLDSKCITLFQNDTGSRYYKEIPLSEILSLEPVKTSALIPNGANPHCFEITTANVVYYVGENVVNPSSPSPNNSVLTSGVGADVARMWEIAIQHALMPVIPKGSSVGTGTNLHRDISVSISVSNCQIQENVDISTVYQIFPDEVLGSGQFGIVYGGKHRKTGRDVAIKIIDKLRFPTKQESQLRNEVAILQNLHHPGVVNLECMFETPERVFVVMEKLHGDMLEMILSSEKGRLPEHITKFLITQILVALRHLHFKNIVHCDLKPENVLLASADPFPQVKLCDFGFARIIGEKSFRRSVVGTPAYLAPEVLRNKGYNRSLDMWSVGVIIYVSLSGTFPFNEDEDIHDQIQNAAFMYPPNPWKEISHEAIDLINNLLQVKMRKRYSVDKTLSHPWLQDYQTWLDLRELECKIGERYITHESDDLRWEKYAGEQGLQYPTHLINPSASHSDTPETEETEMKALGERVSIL

[7] = biological target: Leukocyte tyrosine kinase receptor (Homo sapiens, UniProt P29376); assay: Selectivity interaction (KinomeScan (DiscoverX)) EUB0000229b LTK; settings: at 10 µM
[8] = biological target: T3, Phosphorylase b kinase gamma catalytic chain, liver/testis isoform (Homo sapiens) (UniProt P15735); assay: Selectivity interaction (ProQinase) EUB0000171b PHKG2
T3 sequence (whole entry): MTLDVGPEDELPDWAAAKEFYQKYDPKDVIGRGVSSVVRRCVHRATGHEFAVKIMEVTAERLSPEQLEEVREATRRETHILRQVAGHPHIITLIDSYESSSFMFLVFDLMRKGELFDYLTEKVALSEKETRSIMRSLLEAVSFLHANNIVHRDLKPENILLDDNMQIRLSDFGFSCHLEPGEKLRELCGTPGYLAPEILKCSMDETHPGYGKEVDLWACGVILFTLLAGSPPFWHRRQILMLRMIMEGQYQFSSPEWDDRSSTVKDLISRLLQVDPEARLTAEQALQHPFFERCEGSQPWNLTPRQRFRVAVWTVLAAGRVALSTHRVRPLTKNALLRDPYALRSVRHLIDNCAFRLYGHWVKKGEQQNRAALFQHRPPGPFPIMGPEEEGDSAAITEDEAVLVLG

[9] = biological target: Serine/threonine-protein kinase pim-1 (Homo sapiens, UniProt P11309); assay: Selectivity interaction (KinomeScan (DiscoverX)) EUB0000695a PIM1; settings: at 100 nM
Chain of Serine/threonine-protein kinase pim-1 (P11309 whole entry, looked up): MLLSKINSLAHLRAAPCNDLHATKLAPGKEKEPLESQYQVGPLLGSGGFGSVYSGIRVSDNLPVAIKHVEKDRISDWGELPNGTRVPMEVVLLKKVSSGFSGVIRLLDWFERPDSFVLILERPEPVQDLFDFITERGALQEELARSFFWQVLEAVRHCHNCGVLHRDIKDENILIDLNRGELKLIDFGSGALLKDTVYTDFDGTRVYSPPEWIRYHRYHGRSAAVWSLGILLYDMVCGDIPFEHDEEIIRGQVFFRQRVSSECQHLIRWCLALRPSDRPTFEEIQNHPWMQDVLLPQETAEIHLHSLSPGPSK

Chain of Ephrin type-A receptor 4 (P54764 whole entry): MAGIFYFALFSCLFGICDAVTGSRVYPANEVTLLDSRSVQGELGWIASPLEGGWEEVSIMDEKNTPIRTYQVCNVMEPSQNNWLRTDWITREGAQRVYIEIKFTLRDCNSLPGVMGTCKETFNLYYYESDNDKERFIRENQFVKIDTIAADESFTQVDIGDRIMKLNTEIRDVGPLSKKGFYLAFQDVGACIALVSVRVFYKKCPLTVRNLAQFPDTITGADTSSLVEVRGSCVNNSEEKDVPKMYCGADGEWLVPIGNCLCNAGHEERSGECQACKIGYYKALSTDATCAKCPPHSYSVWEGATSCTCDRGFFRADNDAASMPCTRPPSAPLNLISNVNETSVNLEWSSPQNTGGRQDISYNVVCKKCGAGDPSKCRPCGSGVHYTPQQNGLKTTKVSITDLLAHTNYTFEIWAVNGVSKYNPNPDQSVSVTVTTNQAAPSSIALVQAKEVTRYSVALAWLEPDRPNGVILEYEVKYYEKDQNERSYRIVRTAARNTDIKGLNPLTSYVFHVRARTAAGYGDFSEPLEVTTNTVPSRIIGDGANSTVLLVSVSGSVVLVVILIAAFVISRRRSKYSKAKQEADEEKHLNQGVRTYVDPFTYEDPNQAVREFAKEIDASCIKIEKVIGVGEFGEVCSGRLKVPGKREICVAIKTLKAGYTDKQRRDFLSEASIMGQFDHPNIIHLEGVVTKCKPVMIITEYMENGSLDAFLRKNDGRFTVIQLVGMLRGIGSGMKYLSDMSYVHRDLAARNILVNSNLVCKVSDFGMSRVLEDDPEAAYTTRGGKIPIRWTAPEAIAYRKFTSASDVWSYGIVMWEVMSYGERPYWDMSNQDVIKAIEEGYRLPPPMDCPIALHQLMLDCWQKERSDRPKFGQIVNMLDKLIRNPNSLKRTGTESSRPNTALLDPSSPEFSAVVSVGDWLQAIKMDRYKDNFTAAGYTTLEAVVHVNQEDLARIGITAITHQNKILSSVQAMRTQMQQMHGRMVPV
Chain of Leukocyte tyrosine kinase receptor (P29376 whole entry, canonical isoform): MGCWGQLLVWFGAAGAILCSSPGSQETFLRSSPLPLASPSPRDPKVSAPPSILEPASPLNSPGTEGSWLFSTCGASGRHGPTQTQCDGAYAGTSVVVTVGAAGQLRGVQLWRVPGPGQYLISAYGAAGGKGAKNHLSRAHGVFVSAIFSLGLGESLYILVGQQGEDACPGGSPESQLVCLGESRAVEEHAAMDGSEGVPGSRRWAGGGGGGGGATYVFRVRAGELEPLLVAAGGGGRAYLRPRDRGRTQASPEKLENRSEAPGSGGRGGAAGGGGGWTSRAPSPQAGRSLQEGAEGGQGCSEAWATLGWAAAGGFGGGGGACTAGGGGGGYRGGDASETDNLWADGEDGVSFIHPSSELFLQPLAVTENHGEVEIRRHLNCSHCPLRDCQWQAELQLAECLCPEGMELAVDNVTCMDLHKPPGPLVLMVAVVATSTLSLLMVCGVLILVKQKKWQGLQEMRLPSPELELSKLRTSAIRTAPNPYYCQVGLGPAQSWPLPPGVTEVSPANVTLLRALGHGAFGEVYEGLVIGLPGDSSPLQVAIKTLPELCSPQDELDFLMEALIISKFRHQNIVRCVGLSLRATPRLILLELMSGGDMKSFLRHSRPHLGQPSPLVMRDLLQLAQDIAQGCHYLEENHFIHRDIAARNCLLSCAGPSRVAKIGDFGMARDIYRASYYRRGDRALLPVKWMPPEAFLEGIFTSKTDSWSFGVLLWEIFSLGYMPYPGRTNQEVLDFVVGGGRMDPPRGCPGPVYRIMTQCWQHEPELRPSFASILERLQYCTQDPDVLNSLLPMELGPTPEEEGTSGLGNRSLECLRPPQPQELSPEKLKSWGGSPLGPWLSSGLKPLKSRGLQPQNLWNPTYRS
Chain of Angiopoietin-1 receptor (Homo sapiens) (Q02763 whole entry): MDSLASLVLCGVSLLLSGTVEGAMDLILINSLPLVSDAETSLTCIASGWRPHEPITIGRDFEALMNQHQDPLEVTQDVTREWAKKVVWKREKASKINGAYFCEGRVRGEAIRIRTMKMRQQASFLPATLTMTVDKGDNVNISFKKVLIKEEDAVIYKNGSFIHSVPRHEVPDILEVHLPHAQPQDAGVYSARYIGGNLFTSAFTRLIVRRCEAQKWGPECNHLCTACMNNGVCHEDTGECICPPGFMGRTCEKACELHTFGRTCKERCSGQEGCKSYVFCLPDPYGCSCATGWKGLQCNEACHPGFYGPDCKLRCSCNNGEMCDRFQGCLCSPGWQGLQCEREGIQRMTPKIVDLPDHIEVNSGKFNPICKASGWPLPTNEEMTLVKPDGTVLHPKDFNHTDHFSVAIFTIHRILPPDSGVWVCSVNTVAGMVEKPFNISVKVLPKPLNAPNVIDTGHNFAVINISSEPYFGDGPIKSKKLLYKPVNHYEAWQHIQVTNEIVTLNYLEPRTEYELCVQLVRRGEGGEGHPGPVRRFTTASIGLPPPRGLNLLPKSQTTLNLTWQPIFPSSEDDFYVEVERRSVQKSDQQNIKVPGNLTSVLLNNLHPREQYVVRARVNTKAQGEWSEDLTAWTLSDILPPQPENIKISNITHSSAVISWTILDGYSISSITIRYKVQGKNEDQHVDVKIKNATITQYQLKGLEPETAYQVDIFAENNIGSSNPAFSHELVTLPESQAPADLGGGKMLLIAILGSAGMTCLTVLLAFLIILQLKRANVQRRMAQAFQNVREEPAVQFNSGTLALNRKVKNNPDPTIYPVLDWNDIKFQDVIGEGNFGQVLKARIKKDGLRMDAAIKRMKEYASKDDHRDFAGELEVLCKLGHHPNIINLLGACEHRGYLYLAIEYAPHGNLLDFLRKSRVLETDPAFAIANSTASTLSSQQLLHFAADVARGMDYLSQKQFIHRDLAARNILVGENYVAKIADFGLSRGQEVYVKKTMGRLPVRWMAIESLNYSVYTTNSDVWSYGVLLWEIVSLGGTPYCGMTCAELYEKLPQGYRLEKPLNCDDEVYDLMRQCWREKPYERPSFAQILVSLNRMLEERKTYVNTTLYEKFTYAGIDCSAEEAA
Chain of Protein-tyrosine kinase 6 (Q13882 whole entry): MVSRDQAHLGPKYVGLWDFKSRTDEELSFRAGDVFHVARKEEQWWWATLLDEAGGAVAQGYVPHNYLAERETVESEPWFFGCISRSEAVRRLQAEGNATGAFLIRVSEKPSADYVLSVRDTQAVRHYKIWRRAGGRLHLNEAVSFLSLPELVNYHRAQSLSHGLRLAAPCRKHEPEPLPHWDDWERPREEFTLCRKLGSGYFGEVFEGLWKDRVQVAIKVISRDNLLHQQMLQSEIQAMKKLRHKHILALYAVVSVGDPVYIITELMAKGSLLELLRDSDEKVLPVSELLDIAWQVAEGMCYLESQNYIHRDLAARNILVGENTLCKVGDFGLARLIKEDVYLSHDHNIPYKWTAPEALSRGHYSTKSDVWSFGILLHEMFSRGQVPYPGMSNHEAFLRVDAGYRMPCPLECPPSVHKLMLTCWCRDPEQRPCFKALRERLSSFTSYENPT
Chain of Focal adhesion kinase 1 (Q05397 2-1052 limits assumed): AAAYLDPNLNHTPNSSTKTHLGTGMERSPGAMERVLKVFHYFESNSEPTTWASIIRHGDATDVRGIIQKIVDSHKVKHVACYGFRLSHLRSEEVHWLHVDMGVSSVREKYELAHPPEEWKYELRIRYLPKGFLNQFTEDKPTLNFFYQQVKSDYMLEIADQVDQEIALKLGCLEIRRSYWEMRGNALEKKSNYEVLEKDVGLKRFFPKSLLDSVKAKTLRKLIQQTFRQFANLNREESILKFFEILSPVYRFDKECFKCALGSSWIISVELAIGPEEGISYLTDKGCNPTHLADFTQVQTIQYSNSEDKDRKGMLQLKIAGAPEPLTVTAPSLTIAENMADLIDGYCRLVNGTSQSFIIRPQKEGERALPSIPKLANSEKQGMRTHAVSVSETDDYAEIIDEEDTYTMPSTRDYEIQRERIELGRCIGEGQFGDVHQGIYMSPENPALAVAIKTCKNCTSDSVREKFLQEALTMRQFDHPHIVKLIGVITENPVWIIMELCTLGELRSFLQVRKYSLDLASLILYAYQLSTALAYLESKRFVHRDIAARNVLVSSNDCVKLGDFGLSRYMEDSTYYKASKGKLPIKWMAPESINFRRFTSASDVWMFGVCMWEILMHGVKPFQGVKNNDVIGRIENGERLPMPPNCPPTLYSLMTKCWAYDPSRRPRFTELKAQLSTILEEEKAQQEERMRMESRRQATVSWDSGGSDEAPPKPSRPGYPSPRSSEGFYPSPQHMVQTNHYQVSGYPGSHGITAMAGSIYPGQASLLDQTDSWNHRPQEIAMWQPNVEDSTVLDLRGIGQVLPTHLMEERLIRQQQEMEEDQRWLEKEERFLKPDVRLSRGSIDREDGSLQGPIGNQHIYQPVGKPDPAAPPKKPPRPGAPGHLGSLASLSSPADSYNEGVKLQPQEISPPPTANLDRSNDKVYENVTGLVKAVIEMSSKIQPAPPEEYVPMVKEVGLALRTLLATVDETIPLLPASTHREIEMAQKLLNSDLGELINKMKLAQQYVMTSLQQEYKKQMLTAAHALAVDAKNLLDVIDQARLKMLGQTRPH

CNC(=O)Nc1ccc(-c2nc(N3CC4CCC(C3)O4)c3cnn(C4CCC5(CC4)OCCO5)c3n2)cc1
% of inhibition [1]: 10%

C=CC(=O)Nc1cc(-n2c(=O)ccc3cnc4ccc(-c5ccc(NS(C)(=O)=O)cc5)cc4c32)ccc1C
% of control ([2]; at 1 µM): 89% | % of control ([2]; at 10 µM): 100%

CC[C@@H]1[C@H](F)C(=O)N[C@@H]1COc1nccc2cc(C(N)=O)c(OC)cc12 [ZIMLOVISERTIB]
% of inhibition [3]: 5.5%

CCc1cccc(CC)c1NC(=O)c1nn(C)c2c1CCc1cnc(Nc3ccc(C(=O)NC4CCN(C)CC4)cc3OC(F)(F)F)nc1-2
IC50 [4]: > 10 µM

COc1cc(N(C)c2ccnc3ccc(C(F)(F)F)cc23)cc(OC)c1OC
% binding [5]: 100% | % binding [6]: 100% | % binding [7]: 96%

C=CC(=O)Nc1cccc(C(=O)Nc2ccc(Nc3cc(-c4[nH]c(SC)nc4C)ccn3)cc2)c1
% of control ([8]; at 1 µM): 94% | % of control ([8]; at 5 µM): 96%

Cc1cc(F)c(C(=O)Nc2cccc(-c3nncn3C(C)C)n2)cc1-n1cnc(C2CC2)c1
% of control [9]: 100%
